Drawing on a melting point compilation (Tetko et al.; mined from patent text by program, amines drawn as free bases though some values may be those of a salt), this text covers melting point for 91 compounds.

For orientation: melting point means the temperature of the solid-liquid transition. On to `CC(C)(C)OC(=O)NNC(=O)N1CCN(NC(=O)OCc2ccccc2)C1=O`, for which the melting point lay in the range of 195 to 198 °C.

On to `CN(C)c1cccc(NC(=O)c2cccc(S(=O)(=O)N3CCCCCC3)c2)c1`, for which the melting point is 178 to 180 °C. The figure for `COc1cc(Nc2nccc(-c3ccc(N4CCNC(CCO)C4)nc3)n2)cc(OC)c1OC` (stereo unspecified) is 150 to 151 °C; for `Cn1c(COc2ccc(CC3SC(=O)NC3=O)cc2)nc2ccc(Oc3ccccn3)cc21` (stereo unspecified) it is 200 to 210 °C. The figure for `Clc1nc2c(-c3ccccc3)cccc2o1` is 85.8 °C; for `CCc1cc(Cl)cc2[nH]c(=O)c(-c3ccccc3)c(O)c12` it is 284 to 288 °C; for `CCOC(=O)Cc1cccc(Oc2ccccc2)c1NC(C)=O` it is 106 to 107 °C. The value for `CN(C1CCN(CC(C)(C)O)CC1)S(=O)(=O)c1ccc(Nc2nccc(Nc3ccc(F)c(F)c3)n2)cc1` was 234 to 235 °C. In the case of `CS(=O)c1nccc(N)n1` (stereo unspecified), the melting point lay within 158 to 159 °C. The value for `CN(C)C1(c2ccccc2)CCC(CNC(=O)N2CC=C(c3c[nH]c4ccccc34)CC2)CC1` (stereo unspecified) was 112 to 115 °C. The value for `CNc1ccc(C2OC(C)(C)N=C2c2ccccc2)cc1` (stereo unspecified) was 138 to 139 °C; that for `CC(C)c1nc(CCOC(N)=O)n(Cc2ccncc2)c1Sc1cc(Cl)cc(Cl)c1` was 189 to 191 °C. `CCCCCN(O)C(=O)Nc1ccc(Cl)c(Cl)c1`: the melting point is 88 °C.

Compound `COc1ccc(C(=O)O)c2c1CCCC2` gave a melting point of 214 to 215 °C.

`CN1CCN(C(=O)c2ccc([N+](=O)[O-])cc2[N+](=O)[O-])CC1` yielded a melting point of 130 to 132 °C. Regarding `CCOC(=O)CSc1nc(C(C)(C)C)n[nH]1`, the melting point amounted to 93 °C. The figure for `CC1Cc2c(c(S(N)(=O)=O)nn2C)C(=O)O1` (stereo unspecified) is 142 to 144 °C; for `O=c1cc(NCCN2CCC(c3noc4cc(F)ccc34)CC2)cn[nH]1` it is 97 to 99 °C. The figure for `O=C1N(Cc2ccc(C(F)(F)F)o2)c2ccccc2C1(O)c1nc2c(cc1O)OCO2` (stereo unspecified) is over 250 °C.

`COc1ccc(-c2c3cccc(C(F)(F)F)c3nn2CC(C)C)c(OC)c1`: the melting point lay in the range of 111 to 112 °C. The value for `NC(=S)c1cc(Oc2ccc(C(F)(F)F)cc2Cl)ccc1[N+](=O)[O-]` was 152 °C; that for `COc1ccc(-c2c(Cl)c(CN3C(=O)CCC3=O)nc3sc4c(c23)CC(C)(C)C(OCc2ccccc2)C4)cc1` (stereo unspecified) was 221 to 223 °C.

`CCn1nnnc1Cc1ccc(NC(=O)/C=C/c2cnn(C)c2-c2ccc(F)cc2)cc1` returned a melting point of 206 to 207 °C. The value for `O=P(O)(O)C(O)(CC(O)c1ccccc1)P(=O)(O)O` (stereo unspecified) was 132 °C; that for `Clc1cccc(C(c2ccccc2)(c2ccccc2)n2ccnc2)c1` was 101 °C. The figure for `Oc1nsnc1-c1c(Cl)cccc1Cl` is 194 to 195 °C; for `O=C(Oc1ccc(CCN(F)F)cc1)c1ccccc1` it is 67 to 67.5 °C; for `Nc1nc(-c2cccc3ccccc23)cc2ccc(Cl)cc12` it is 180 to 181 °C. The figure for `CC(C)(C)c1cc(CCC(=O)NCCNCCNCCNC(=O)CCc2cc(C(C)(C)C)c(O)c(C(C)(C)C)c2)cc(C(C)(C)C)c1O` is 80 to 110 °C; for `Cc1ccc([N+](=O)[O-])cc1Nc1nccc(-c2ccc(Cl)nc2)n1` it is 210 to 212 °C.

As to `O=C(N1Cc2ccccc2Nc2ccccc21)C(F)(F)F`, the melting point fell in the range of 140 to 141 °C. `COCc1nc2c([N+](=O)[O-])cc(Br)cc2n1C` gave a melting point of 145 to 147 °C. The value for `N#Cc1ccc(-c2ccc(-c3ccc(-c4ccc(C#N)cc4)o3)o2)cc1` was 298 to 299 °C; that for `O=C1OCCN1CCN1CCN(C2Cc3cc(F)ccc3Sc3ccccc32)CC1` (stereo unspecified) was 158 to 159 °C; that for `CCN(CC)CCNC(=O)c1cccc2nc3cc(I)ccc3nc12` was 140 to 142 °C. The value for `Clc1cc(NC2CCCC2)nc(NC2CCCC2)n1` was 94 to 98 °C; that for `O=S(=O)(NCCN1CCOCC1)c1ccc(-c2n[nH]c3c2Cc2ccccc2-3)cc1` was 218 to 220 °C; that for `CC(C)(C)OC(=O)CC[C@H](NC(=O)c1ccc(NCc2ccccc2)c(F)c1)C(=O)OC(C)(C)C` was 80 to 82 °C. The value for `Oc1ccc2oc3ccccc3c2c1Cn1c(=S)sc2ccccc21` was 174 to 180 °C. `N#Cc1cccc(CCC(=O)O)c1` yielded a melting point of 95 °C.

Consider `COc1ccc(C#CCCCCOc2ccc(C(=O)c3cccc(C(=O)O)c3)cc2CCC(=O)O)cc1`, for which the melting point was 144 to 146 °C. The figure for `COc1ccc(CC(=O)c2c(O)cc(OC)cc2OC)c(OC)c1` is 116 to 119 °C; for `Nc1c(Cl)cc(C(O)CNCCCCCCSCCc2ccccn2)cc1Cl` (stereo unspecified) it is 83 to 84 °C. The figure for `CC1(C#N)CN(C(c2ccccc2)c2ccccc2)C1` is 78 to 80 °C.

Take `C=CCOc1cc2c(cc1C(C)=O)CCCC2`: the melting point fell in the range of 62 to 63 °C.

Consider `CC(=O)Nc1cccc(-c2cnc(N(C)C)nc2)c1`, for which the melting point was in the range of 183 to 188 °C. The value for `O=C(O)CCCNc1ccnn1-c1c(Cl)cc(C(F)(F)F)cc1Cl` was 160 to 162 °C; that for `NC(=O)c1cc2c(Sc3ccc(Cl)cc3)cncc2s1` was 239 to 241 °C; that for `CC(=O)c1nnc2n1-c1sc(Cl)cc1C(c1ccccc1Cl)=NC2` was 89 to 91 °C. The figure for `CN1CCC(N2C(=O)c3ccccc3Oc3ccccc32)CC1` is 173 to 174 °C; for `N#CCNC(=O)C(Cl)c1ccccc1` (stereo unspecified) it is 73 to 74 °C; for `Cc1nc(NC(=O)c2cnn3c(C(F)F)cc(-c4ccc(C(F)(F)F)cc4)nc23)sc1S(=O)(=O)NCCN(C)C` it is 217 °C.

Compound `Cc1sc(N)c(C(=O)c2ccc(Cl)cc2)c1C` returned a melting point of 122 to 123 °C. `Cc1ccc(Cc2ccc(-c3cnn4c(O)ncnc34)cc2)cc1` displayed a melting point of 285 to 292 °C.

Compound `O=C(Cn1c(-c2ccc(Cl)cc2)nc2cccnc21)NC1CC1` registered a melting point of 231 to 232 °C. The figure for `C=CCOC(=O)c1c(C)nc2c(cnn2CCC(C)CC)c1N` (stereo unspecified) is 85 to 86 °C. `COC(=O)NC(=O)Nc1nc2c(C)cccc2s1` returned a melting point of 272 to 280 °C.

`Cc1nc(COc2ccc3c(c2)[C@H](O)[C@H](Cc2cccnc2)CO3)ccc1Br` (relative stereo) came in with a melting point of 134 to 137 °C.

The compound `CNc1nc(C)nc(N2CCCC(C)C2)n1` (stereo unspecified) had a melting point of 155 to 156 °C.

On to `CCC1(CC)COC(c2cccc(NC(=O)NC)c2)OC1`, for which the melting point is 112 to 125 °C.

As for `c1ccc(-c2ccc3c(c2)CCN(Cc2c[nH]c4ncccc24)C3)cc1`, the melting point lay within 211 to 213 °C. The value for `CC(=O)Oc1ccccc1C(=O)Nc1ncc(S(C)(=O)=O)s1` was 173 to 175 °C.

`Cc1oc(-c2ccccc2)nc1COc1ccc(Cn2cc(C=O)c(-c3ccccc3)c2)cc1` registered a melting point of 117 to 118 °C. The compound `CC(O)c1cc2c(cn1)CCCC2` (stereo unspecified) had a melting point of 44 to 45 °C.

`O=C(NC1CCN(C(=O)OCCC2(C(=O)NCC(F)(F)F)c3ccccc3-c3ccccc32)CC1)c1ccccc1Oc1ccccc1`: the melting point is 68 to 73 °C. In turn, `COc1cccc(CN2CCc3cc(O)c(OC)cc3C2)c1` came in with a melting point of 161 to 162 °C. The figure for `CC(C)(C)c1cc(C(=O)c2ccc(N)cc2)cc(C(C)(C)C)c1O` is 164 to 166 °C; for `CC(C)c1ccc(C2(OC(=O)N(C)C)C(=O)c3ccccc3C2=O)c(OC(=O)N(C)C)c1` it is 203 to 205 °C; for `Cc1nc(-c2ccccc2)nc(-c2cccc([N+](=O)[O-])c2)c1C(C)N1CCN(C)CC1` (stereo unspecified) it is 130 to 131 °C. The value for `COC(=O)Cc1cc(O)c(C(C)(C)C)cc1C` was 100 to 102 °C; that for `COC(=O)c1ccc([N+](=O)[O-])cc1C` was 73.6 °C. The figure for `CCCCCCCCC1C=CC(C(=O)c2ccc(C(=O)O)o2)=C2N=C3CCCCC3=C21` (stereo unspecified) is 140 to 142 °C. `Nc1c(S)ccc2ccccc12` returned a melting point of 36 to 37 °C. On to `O=C(c1cc(N2CCCCC2)ccn1)N(O)CCCc1ccccc1`, for which the melting point lay within 125 to 130 °C. The value for `CC1CN(N=Cc2cccnc2)C(=O)NN1` (stereo unspecified) was 235 to 237 °C. The value for `Nc1ccn(C2CCCCC2)c(=O)n1` was 213 to 231 °C.

`COC(=O)N1CCC(C2(NO)OCCO2)C(=O)C1` (stereo unspecified) showed a melting point of 150 to 152 °C. The figure for `Cc1ccc(-n2c3c(c(=O)c4cccnc42)CCO3)cc1` is 246 to 248 °C; for `COc1c(OC)c(OC)c2c(=O)cc(-c3ccc(O)cc3)oc2c1OC` it is 187 to 188 °C. The value for `CCOC(=O)C1CNc2cc(NS(C)(=O)=O)ccc2O1` (stereo unspecified) was 149 to 151 °C; that for `CCOC(=O)Cc1ccc(Cc2n[nH]c3c2c(=O)n(-c2ccccc2)c2ncccc32)cc1` was 263 to 264 °C; that for `O=S1(=O)c2cccc3cccc(c23)N1CCN1CCN(c2nsc3ccccc23)CC1` was 162 °C.

In turn, `CC1=NN(C)c2nc(C)c(CCO)c(=O)n2C1` displayed a melting point of 140 °C.

For `O=C(c1ccccc1)c1ccc(OCCc2c[nH]cn2)cc1`, the melting point was in the range of 193 to 194 °C. The figure for `O=C(Nc1ccc(O)cc1)OCc1ccccc1` is 153 to 154 °C. The value for `CCOC(=O)C(Sc1ccc(O)cc1)c1ccc(-c2cccs2)cc1` (stereo unspecified) was 103 °C; that for `Cc1cc(=O)n2cccc(O)c2n1` was 144 to 145 °C.

Consider `Cc1cc(Cl)c(C(=O)OC(C)c2nc3c(c(=O)n(C)c(=O)n3C)n2C)c(C)n1` (stereo unspecified), for which the melting point was in the range of 168 to 170 °C. The value for `CC(=O)C(=Cc1ccc(S(C)(=O)=O)c(Cl)c1)C(C)=O` was 140 to 142 °C. The figure for `FC(F)(F)c1ccc(Cn2cnc3c(-c4ccco4)ncnc32)cc1` is 159 to 161 °C. The value for `CC(C)c1nc(-c2ccc(F)cc2)c(C=O)c(C(C)C)c1CO` was 147 °C.
